US20210395689A1, “METHOD FOR PRODUCING INSULIN-PRODUCING CELLS” (KATAOKA CORPORATION, priority 2018, published 2021)

Tests used:
[1] = test system: pancreatic α-cells; details: reported in Non-Patent Document 7; cited from earlier work
[2] = test system: human fibroblasts; assay: Direct induction from human fibroblasts into insulin-producing cells, amount of insulin secreted; assay type: cell-based; details: culturing for 14 days in differentiation induction medium; 3 μM CHIR99021, 7.5 μM forskolin, 1.5 μM BRD7389, 5 μM LY294002; BI-D1870 5 μM or 10 μM; FIGS. 1 to 4
Description: The insulin-producing cell produced by the present invention process can be detected, identified, and isolated using, for example, a morphological change of a cell, a characteristic property of an insulin-producing cell, or a specific marker (e.g., an anti-insulin antibody). Moreover, the secretory capacity of the obtained insulin-producing cell can also be evaluated by quantifying the amount of secreted insulin using sandwich ELISA.
The human fibroblasts used as the material were purchased from DS Pharma Biomedical Co., Ltd. The fibroblasts are derived from human skin.
Human fibroblasts were seeded in 35-mm dishes coated with gelatin (Cat #: 190-15805, manufactured by Wako Pure Chemical Industries, Ltd.) at 5×10^4 cells/dish, and cultured in DMEM medium (manufactured by Gibco) supplemented with 10% fetal bovine serum (FBS), 100 U/mL penicillin, and 100 μg/mL streptomycin until confluent under conditions of 37° C. and 5% CO2. Note that DMEM refers to Dulbecco's Modified Eagle's Medium.
The medium of dishes of the human fibroblasts described above was replaced with the differentiation induction medium described below. […]

## O=C1c2ccccc2-c2c(NCCc3ccccc3)c(=O)[nH]c3cccc1c23 [BRD7389]
[1]
  expression of insulin genes in pancreatic α-cells: capacity of activating the expression of insulin genes
[2]
  insulin secretion by insulin-producing cells directly differentiated from human fibroblasts: a considerable amount of insulin secretion was observed
